Data published in article PMC8524809 (Molecular Therapy, 2021).

How the values were obtained:
[1] = test system: SARS-CoV-2 S pseudovirion beta variant; format: cell-based; conditions: similar to the WT
[2] = test system: SARS-CoV-2 S pseudovirion alpha variant; format: cell-based; conditions: similar to the WT

## CC(C)(O)c1ccccc1CC[C@@H](SCC1(CC(=O)O)CC1)c1cccc(/C=C/c2ccc3ccc(Cl)cc3n2)c1 [montelukast]
[1]
  Inhibition of pseudovirus entry: increase in a dose-dependent manner
[2]
  Inhibition of pseudovirus entry: increase in a dose-dependent manner
